From ChEMBL document CHEMBL1201862, “PubChem BioAssay data set” (2004) come the findings set out here.

Holding throughout (assay): NCI anticancer screen, dose series, 48 h
Test [1] has as its system U-251.
In test [2] the test system is NCI-H23.
In test [3] the test system is CCRF-CEM.
The subject of test [4] is HCT-15.
The subject of test [5] is SK-MEL-2.
The subject of test [6] is OVCAR-8.
Test [7] relates to HOP-62.
Test [8] concerns SR.
The subject of test [9] is OVCAR-4.
The test system of test [10] is ACHN.
Test [11] concerns UACC-257.
Test [12] concerns LOX IMVI.
Test [13] deals with NCI-H522.
Test [14] has as its system COLO 205.
Test [15] concerns KM12.
Test [16] has as its system RPMI-8226.
For test [17], the system named is NCI/ADR-RES.
Test [18] concerns A549.
Test [19] has as its system SW-620.
In test [20] the test system is RXF 393.

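Where inhibition never reached the appropriate level, the endpoint shown equals the highest concentration tested. Otherwise, values were interpolated linearly from a five-concentration, 48-hour dose response in 96-well plates. The concentration for 50% growth inhibition is given as GI50.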 Activity calls are given as the source filed them. Cut-off read from the data, not from the text of the source: active = GI50 up to about 1.1 µM and inactive = higher. Positions of bridges follow the written chain, without caps; N, C: chain ends. Non-standard residues stand in square brackets, D forms with d. Residues, ends and D or L forms follow the SMILES beside them. Aib = CC(C)(N)C(=O)O; βAla = NCCC(=O)O Some results are limits rather than exact numbers.

`CCOC(=O)CCC(NC(=O)c1ccc(Nc2nc3ccccc3nc2C(=O)OCC)cc1)C(=O)OCC` (configuration not stated): the GI50 in test [1] is 3.12 µM (inactive); in test [2], 7.52 µM (inactive); in test [3], > 100 µM (inactive); in test [4] it was 18.1 µM; in test [5] it was 6.79 µM (inactive); in test [6], 2.75 µM (inactive). The GI50 is 3.89 µM (inactive) in test [7]; > 39.3 µM (inactive) in [8]; 1.61 µM (inactive) in [9]; 3.58 µM (inactive) in test [10]; 18.9 µM (inactive) in test [11]; 5.58 µM (inactive) in test [12]. The GI50 is 3.3 µM (inactive) in test [13]; > 33.7 µM (inactive) in test [14]; 3.78 µM (inactive) in test [15]; 6.76 µM (inactive) in test [16]; 5.46 µM (inactive) in test [17]; 3.78 µM (inactive) in test [18]. Also, the GI50 in test [19] is 5.77 µM (inactive).
With `COc1ccc(CCCNC(=O)Cc2cc(OC)c(OC)cc2CO)cc1OC`, the GI50 was > 100 µM (inactive) in [1]; 75 µM (inactive) in [2]; > 100 µM (inactive) in [3]; > 100 µM in test [4]; > 100 µM (inactive) in test [5]; > 100 µM (inactive) in test [6]. The GI50 in test [7], in [8], in test [9], in [10], in test [11] and in test [12] was > 100 µM (inactive) throughout. The GI50 in test [14], in test [15], in [17], in test [18] and in test [19] was > 100 µM (inactive) in each case.
For the compound `O=c1[nH]c2cc(C(F)(F)F)ccc2nc1Cc1ccccc1`, the GI50 was 76 µM (inactive) in [1]; 23.4 µM (inactive) in test [2]; > 100 µM (inactive) in test [3]; > 100 µM in test [4]; > 100 µM (inactive) in [5]; 80.2 µM (inactive) in test [6]. The GI50 in [7] is 28.9 µM (inactive); in [8], 36.6 µM (inactive); in test [9] it was 63.7 µM (inactive); in test [10], 52.6 µM (inactive); in [11], > 100 µM (inactive); in [12], > 100 µM (inactive). The GI50 in [20] is 37.7 µM (inactive); in test [14], > 100 µM (inactive); in test [15], > 100 µM (inactive); in test [16], > 100 µM (inactive); in [17], 67 µM (inactive); in [19], > 100 µM (inactive).
In the case of `COc1ccc(-c2nc(-c3cnccn3)n(C3OC(CO)C(O)C3O)n2)cc1` (configuration not stated), the GI50 in [1] is > 10 µM (inactive); in test [2], > 10 µM (inactive); in test [3] it was > 10 µM (inactive); in [4], > 10 µM; in test [5], > 10 µM (inactive); in test [6], > 10 µM (inactive). For the same compound, the GI50 in test [8], in [9], in [10], in test [11], in [12] and in [13] was > 10 µM (inactive) each time. Further, the GI50 in [15], in test [17], in test [18] and in test [19] was > 10 µM (inactive) throughout.
On to `O=c1c2ccccc2c2c1c1c3ccccc3c(=O)c1c1c3ccccc3c(=O)c21`, for which the GI50 in test [1] is > 100 µM (inactive); in test [2], > 100 µM (inactive); in test [3], > 100 µM (inactive); in test [4] it was > 100 µM; in test [5] it was > 100 µM (inactive); in test [6], > 100 µM (inactive). Further, the GI50 in test [7], in test [8], in test [10], in test [11], in test [12] and in test [13] was > 100 µM (inactive) throughout. Moreover, the GI50 in test [14], in test [15], in [16], in test [17], in [18] and in test [19] was > 100 µM (inactive) in each case.
Take `C/C(=N/c1[nH]c(=O)cc2c1C(=O)CC2)N(C)C`: the GI50 is > 200 µM (inactive) in test [1]; > 200 µM (inactive) in [2]; > 200 µM (inactive) in test [3]; > 200 µM in test [4]; > 200 µM (inactive) in [5]; > 200 µM (inactive) in test [6]. Further, the GI50 in test [7], in [9], in [10], in test [11], in test [12] and in [20] was > 200 µM (inactive) throughout. In addition, the GI50 in test [13], in test [14], in test [15], in test [16], in test [17] and in test [18] was > 200 µM (inactive) each time. For the same compound, the GI50 in test [19] is > 200 µM (inactive).
For `COc1ccc2c(c1)C1Oc3ccccc3CC1(O)CO2` (configuration not stated), the GI50 in test [1] was > 100 µM (inactive); in test [2], > 100 µM (inactive); in test [3] it was > 100 µM (inactive); in test [4], > 100 µM; in [5], > 100 µM (inactive); in [6], > 100 µM (inactive). Further, the GI50 in [7], in [8], in test [9], in [10], in test [11] and in test [12] was > 100 µM (inactive) throughout. The GI50 in [13], in test [14], in [15], in test [16], in test [17] and in test [18] was > 100 µM (inactive) in each case. Also, the GI50 in test [19] was > 100 µM (inactive).
Consider `CS/C(=N\S(=O)(=O)c1ccc(Cl)cc1)NCCCCN/C(=N/S(=O)(=O)c1ccc(Cl)cc1)SC`, for which the GI50 is 69.5 µM (inactive) in test [1]; > 100 µM (inactive) in test [3]; > 100 µM in test [4]; > 100 µM (inactive) in test [5]; 75.3 µM (inactive) in test [6]; > 100 µM (inactive) in test [7]. Further, the GI50 in test [8], in test [9], in test [10], in [11], in test [12] and in [14] was > 100 µM (inactive) each time. The GI50 in [16], in test [17] and in test [19] was > 100 µM (inactive) throughout.
In the case of `COc1ccc2c3c1O[C@H]1C(=O)C=CC4(n5[nH]c(=O)n(-c6ccccc6)c5=O)C(C2)N(C)CCC314` (some centres not stated), the GI50 is > 100 µM (inactive) in [1]; > 100 µM (inactive) in test [2]; > 100 µM (inactive) in test [3]; > 100 µM in test [4]; > 100 µM (inactive) in test [5]; > 100 µM (inactive) in test [6]. For the same compound, the GI50 in test [7], in test [8], in test [9], in [10], in test [12] and in test [13] was > 100 µM (inactive) in each case. Moreover, the GI50 in test [14], in [15], in test [16], in test [17], in test [18] and in test [19] was > 100 µM (inactive) each time.
For the compound `CC(=O)OC1COC(n2nc(N)nc2C)C(OC(C)=O)C1OC(C)=O` (configuration not stated), the GI50 in test [1] is > 100 µM (inactive); in test [2], > 100 µM (inactive); in test [3], > 100 µM (inactive); in [4] it was > 100 µM; in [5], > 100 µM (inactive); in test [6] it was > 100 µM (inactive). The GI50 in test [7], in [9], in test [10], in test [11], in test [12] and in [20] was > 100 µM (inactive) each time. Besides, the GI50 in [13], in test [14], in test [15], in test [16], in test [17] and in [18] was > 100 µM (inactive) each time. Moreover, the GI50 in test [19] is > 100 µM (inactive).
`CC1(C)NC(=O)C(NC(=O)C(N)CC(=O)O)CCCCNC(=O)CCNC1=O` (configuration not stated) (H-DK[Aib][βAla]; lactam 2-C; configuration not given here): the GI50 in test [1] is > 100 µM (inactive); in [2] it was > 100 µM (inactive); in [3], > 100 µM (inactive); in test [4], > 100 µM; in test [5], > 100 µM (inactive); in [6], > 100 µM (inactive). The GI50 in test [7], in [9], in test [10], in test [11], in test [12] and in [20] was > 100 µM (inactive) throughout. The GI50 in test [13], in [14], in [15], in [16], in test [17] and in test [18] was > 100 µM (inactive) each time. The GI50 in test [19] is > 100 µM (inactive).
